According to the METLIN SMRT retention time set (Domingo-Almenara et al. 2019):

Test: gradient 5% acetonitrile 3 min, to 50% in 2 min, to 85% in 15 min, held 3 min, 100 µL/min
Conditions: column: Zorbax Extend-C18 2.1 x 50 mm; eluents: water / acetonitrile, 0.1% formic acid
Procedure, shortened: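 Over 3 months, pure standards in mixtures of ~100 molecules were run by HPLC coupled to a quadrupole time-of-flight mass spectrometer in positive and negative ionization mode. The column was a Zorbax Extend-C18 (2.1 × 50 mm, 1.8 μm) at 100 μL/min, eluted with water and acetonitrile each holding 0.1% formic acid, with 40 μL dead and 900 μL dwell volumes. Retention time was determined from adduct peaks chosen by software and checked manually.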

RP-LC retention time [s] | Structure (SMILES)
641 | Cc1ccc(C)c2sc(NCc3ccccn3)nc12
930 | CCCNC(=O)c1cc(-c2ccc(F)cc2)cn1C
821 | COc1ccc(NC(=O)NC2CCN(c3ccc(C)c(C)c3)C2=O)cc1 (stereo not given)
578 | CN(C)c1cccc(C(=O)N2CCc3nc[nH]c3C2)c1
1100 | COc1ccc(NS(=O)(=O)c2cccc(-c3nc(-c4ccccc4)no3)c2)cc1
620 | Cc1cccc(-n2nnc(C(=O)O)c2-c2ccncc2)c1
1060 | C=CCN1C(=O)COc2ccc(-c3csc(NC(=O)c4cccc(C)c4)n3)cc21
1240 | CCc1nc2cc(-c3noc(COc4cccc(Cl)c4)n3)ccc2o1
730 | O=C(Cn1nc2c3cc(Cl)ccc3ncn2c1=O)Nc1cccc(Cl)c1
797 | CCOCCCNC(=O)C(C)Sc1ccc(=O)n(-c2ccc(C)c(Cl)c2)n1 (stereo not given)
1270 | CCn1nccc1-c1cccc(-c2noc(-c3ccc(F)c(F)c3)n2)c1
642 | Cn1nccc1C(=O)N1CCC(c2noc(-c3ccncc3)n2)C1 (stereo not given)
736 | Cc1cc(NC(=O)c2cccc(NS(=O)(=O)c3ccc(F)cc3)c2)no1
753 | CSc1cccc(NC(=O)Cc2nnc(-c3ccc4ncccc4c3)o2)c1
674 | O=C(Cn1c(=O)c2nncn2c2ncccc21)N1CCN(c2ccccc2)CC1
820 | COc1cccc(C2CC(c3cccc(NS(C)(=O)=O)c3)=NN2C(=O)C(C)(C)C)c1O (stereo not given)
711 | CNC(=O)Cc1csc(NC(=O)c2csc(Nc3cccc(C)n3)n2)n1

More lines, now with the values behind:

Structure (SMILES) | RP-LC retention time [s]
CC(=O)N1CCc2nn(CC(=O)N3CCN(c4ccccc4F)CC3)c(=O)cc2C1 | 652
Cn1cc(CN2CCC(C(=O)NCCCN3CCOCC3)CC2)c2cc(Cl)ccc21 | 580
CN1C(=O)CC[C@]2(C(=O)NCc3ccc(F)c(Cl)c3)CCCC[C@@H]12 | 718
COc1ccc(-c2nnc(-c3cccnc3NCc3ccc(OC)c(OC)c3)o2)cc1 | 1060
CCc1ccc(CN2C[C@@H]3C(=O)N(CCOC)C(=O)[C@@H]3C2)cc1 | 631
Cn1cnc([N+](=O)[O-])c1Sc1ncn[nH]1 | 626
COc1ccc(N2CCN(C(=O)Cc3csc4nc(-c5ccc(OC)c(OC)c5)cn34)CC2)cc1 | 686
CCOc1ccc(Cl)cc1S(=O)(=O)N1CCC(C(=O)NCCCO)CC1 | 688
Cc1nn2c(S(=O)(=O)N3CCC4(CC3)OCCO4)c(C)nc2s1 | 692
COCC(=O)N(CC(=O)N1CCc2sccc2C1COc1ccc(F)cc1)C(C)(C)C (stereo not given) | 906
CCc1n[nH]c(CC2CCN(C(=O)C3(c4ccccc4)CC3)CC2)n1 | 608
CCCOc1nccnc1N1CCC(N(C)C(=O)Cc2cccnc2)C1 (stereo not given) | 599
Cc1nc(C)c(C(=O)Nc2cc(F)ccc2F)s1 | 783
CCOc1ccc(NC(=O)c2cn3c4c(ccc(Cl)c4c2=O)OCC3)cc1 | 657
COc1cc(CNCCSc2nnnn2C)cc(Br)c1OCc1ccccc1 | 744
CC(C)(C)NC(=O)c1cc2c(n(-c3ccc(C(F)(F)F)cc3)c1=O)CCCC2=O | 949
COc1ccc(C(=O)N(C2CCCC2)C2(C(=O)NCc3ccccc3)CCN(C(C)=O)CC2)cc1 | 885
O=C(NCC1CCCO1)c1nnc(-c2ccc(S(=O)(=O)N3CCCC3)cc2)o1 (stereo not given) | 729
COc1ccc(C(=O)N2CCN(c3nc(CN4CCOCC4)cs3)CC2)cn1 | 580
CCn1c(=O)oc2cc(-c3noc(-c4ccc(F)cc4Cl)n3)ccc21 | 1190
CCc1nc2c(N)cccn2n1 | 597
CC(C)(C)CC(=O)Nc1cnc(-c2ccc(Cl)cc2)nc1 | 1130
CCn1ccc2cc(S(=O)(=O)N3CCCN(C(=O)NCc4ccco4)CC3)ccc21 | 832
CCSCCOC(=O)C1=C(C)NC2=C(C(=O)CCC2)C1c1ccccc1OC (stereo not given) | 727
CCCN1C(=O)c2c(C(=O)NCc3ccc(OC(C)C)cc3)ncn2CC1(C)C(=O)NC1CCCC1 (stereo not given) | 923
CCNc1cc(N2CCCC(CCC(=O)N3CCCC(CN4CCCC4)C3)C2)ncn1 (stereo not given) | 571
CCc1ccc(CNC(=O)C2CCCN(c3ccc(=O)n(-c4ccc(OC)cc4)n3)C2)cc1 (stereo not given) | 871
CCN(CC)C(=O)c1ccc2oc(CN3CCN(C(=O)NCC(C)C)CC3)nc2c1 | 624
